Data set [1] in a line: acute toxicity (delayed toxicity in mice after 20 days), i.p. in rape oil. Conditions: mouse, ip. Format: in vivo. From the text: (§1) The toxicity of the polyene compound of formula I is slight.
The next data set deals with mice. The description is as above. It counts as in vivo.
Description: as §1

Some results are limits rather than exact numbers.

`COC(C)C1=C(C=CC(C)=CC=CC(C)=CC(=O)O)C(C)(C)CC1` (centres unmarked) [9-[2-(1-methoxyethyl)-5,5-dimethyl-cyclopent-1-en-1-y1]-3,7-dimethyl-nona-2,4,6,8-tetraen-1-acid] returned an LD50 at 24 h in data set [1] (after 1 day) greater than 4000 mg/kg. For the same compound, the LD50 at 240 h in data set [1] (after 10 days) turned out to be 350 mg/kg. Moreover, the LD10 is recorded as greater than 4000 mg/kg in the data set on mice (after 1 day), 290 mg/kg in the data set on mice (after 10 days) and 290 mg/kg in the data set with mice (after 20 days). Also, the figures for the LD90 with mice (after 1 day), in the data set with mice (after 10 days) and in the data set on mice (after 20 days) were greater than 4000 mg/kg, 430 mg/kg and 430 mg/kg, respectively.

Broadly, the LD50 is the dose expected to kill half of the subjects tested. A low value points to a more toxic substance.

For the origin of these results see US4044051A, “9[2-(1-Al koxy-ethyl)-5,5-dimethyl-cyclopent-1-en-1-yl]-3,7-dimethyl-nona-2,4,6,8-t etraen acid compounds” (Hoffmann-La Roche Inc., priority 1971, dated 1977).
